The text below walks through data of patent US9328131B2, “Benzimidazolium compounds” (Boehringer Ingelheim International GmbH, priority 2013, dated 2016).

One series has as its system Mouse kidney M-1 cells. In words: Ussing Chamber assay: inhibition of amiloride sensitive short circuit current. The format is cell-based. The note with it: compound in the apical solution, 37° C. The method, then: Ussing Chamber: Mouse kidney M-1 cells were cultivated in DMEM containing 5% FCS and 5 μM dexamethasone for 10 to 12 days on polyester transwell filters. Filters were inserted into a teflon-coated well-plate which fit into the ussing chamber system. Prior to measurement the medium of M−1 cells was replaced with Caco-2 transport buffer (Invitrogen, Germany). During measurements, the Ussing chamber temperature was kept at 37° C. Short circuit currents (l_sc) were measured in the voltage-clamp mode with the software package Lab View for data acquisition and analysis. The transepithelial electrical resistance (TEER) was determined by the application of voltage steps of ±5 mV every 5 sec. Compounds were administered at a final concentration of 3 μM or at increasing concentrations (1-3-10 μM) to the apical solution. At the end of each experiment the amiloride sensitive l_SC was measured by adding 3 μM amiloride to the apical compartment. Results are expressed as inhibition in percent of the amiloride effect or as IC50.
With the example compounds given above, the following IC50 values were determined in the Ussing Chamber assay: […]

A short description of series [1]: Permeability in CALU-3 cells. The format is in vitro ADME. The following applies: human, CALU-3 monolayers, pH 7.4, 37° C., 10 μM compound. As to the method: Permeability in CALU-3 cells:
Permeability measurements across polarized, confluent CALU-3 cell monolayers grown on permeable filter supports are used to provide information on the potential of a compound to pass the lung epithelium. Apparent permeability coefficients (Papp) of the compounds across the CALU-3 cell monolayers are measured (pH 7.4, 37° C.) in apical-to-basal (AB) and basal-to-apical (BA) transport direction.
CALU-3 cells (1−2×10^5 cells/1 cm^2 area) are seeded on filter inserts (Costar transwell polycarbonate filters, 0.4 μm pore size) and cultured (DMEM) for 10-12 days until tight monolayers are formed. Compounds of interest are dissolved in appropriate solvent (DMSO, 10 mM stock solution). Stock solutions are diluted with HTP-4 buffer (128.13 mM NaCl, 5.36 mM KCl, 1 mM MgSO4, 1.8 mM CaCl2, 4.17 mM NaHCO3, 1.19 mM Na2HPO4×7H2O, 0.41 mM NaH2PO4×H2O, 15 mM HEPES, 20 mM glucose, 0.25% BSA, pH 7.4) to prepare the transport solutions (10 μM compound, final DMSO<=0.5%). The transport solution (TL) is applied to the apical or basolateral donor side for measuring A-B or B-A permeability (3 filter replicates), respectively. The receiver side contains the same buffer as the donor side. After 30 min of accommodation, samples are collected at the start t0=0 min and at the end of the experiment tn=90 min from the donor and at 0, 30, 60, and 90 min also from the receiver chamber. Volume removed is replenished by HTP-4 buffer. The compound concentration in the samples is measured by HPLC-MS/MS or scintillation counting. The permeability coefficient (Papp) and efflux ratio are calculated according to: Papp[cm/s]=(concentration receiver[nM]*volume receiver[mL]/time interval[sec])*(1/filter area)*(1/donor concentration[nM])
With example compounds given above, the following permeability values were determined in the CALU-3 cells assay: […]

Bounds are passed on as bounds.

With `CCOP(=O)(OCC)c1ccc(CCC[n+]2c(CNC(=O)c3nc(Cl)c(N)nc3N)n(CC)c3cc(OC)ccc32)cc1.O=C([O-])C(F)(F)F` [Example 1.1], the IC50 (usually the concentration that inhibits the measured activity by half) in the series on Mouse kidney M-1 cells worked out at 2 nM. Further, the Papp A→B (as a rule, the apparent permeability from the apical to the basolateral side of a cell layer) at 90 min, 10 μM in series [1] (apical-to-basal) is 0.16 ×10⁻⁶ cm/s. Besides, the Papp B→A (in general, the apparent permeability from the basolateral to the apical side of a cell layer) at 90 min, 10 μM in series [1] (basal-to-apical) came to 0.28 ×10⁻⁶ cm/s.
Taken in the same sequence, the figures for `CCn1c(CNC(=O)c2nc(Br)c(N)nc2N)[n+](CCOCCOCCO)c2ccc(OC)cc21.O=C([O-])C(F)(F)F` [Example 2.1] were 1 nM, 0.23 ×10⁻⁶ cm/s and 0.4 ×10⁻⁶ cm/s.
`CCOP(=O)([O-])CCCn1c(CNC(=O)c2nc(Cl)c(N)nc2N)[n+](CC)c2cc(OC)ccc21` [Example 5.1] yielded a half-maximal inhibitory concentration (IC50) with Mouse kidney M-1 cells of 29 nM. The same compound had a Papp A→B in series [1] (apical-to-basal) of 0.17 ×10⁻⁶ cm/s. In addition, in series [1] (basal-to-apical), the Papp B→A was found to be 0.05 ×10⁻⁶ cm/s.
Turning to `CC[n+]1c(CNC(=O)c2nc(Cl)c(N)nc2N)n(C2CCN(C(C)=O)CC2)c2ccccc21.O=C[O-]` [Example 3.1], it took 5 nM to reach half-maximal inhibition in the series with Mouse kidney M-1 cells (IC50). In addition, in series [1] (apical-to-basal), the Papp A→B at 90 min, 10 μM was 1.7 ×10⁻⁶ cm/s. Moreover, in series [1] (basal-to-apical), the Papp B→A at 90 min, 10 μM worked out at 0.45 ×10⁻⁶ cm/s.
`CC[n+]1c(CNC(=O)c2nc(Cl)c(N)nc2N)n(CCCP(=O)(O)O)c2ccc(OC)cc21.O=C([O-])C(F)(F)F` [Example 4.1] yielded an IC50 in the series with Mouse kidney M-1 cells of 56 nM. The apparent permeability from apical to basolateral (Papp A→B) at 90 min, 10 μM in series [1] (apical-to-basal) was under 0.34 ×10⁻⁶ cm/s. The compound further yielded a Papp B→A at 90 min, 10 μM in series [1] (basal-to-apical) of 0.08 ×10⁻⁶ cm/s.
